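1) Cells in 96-well plates. 2) Compound, 48 h, 5 concentrations. 3) Linear interpolation between surrounding doses. 4) Unreached endpoint = highest concentration. GI50 = concentration required for 50% inhibition of growth. TGI marks complete inhibition of growth.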
How the values were obtained:
Test in all cases: NCI tumour cell line growth inhibition, 48 h
SW-620 colon = test system: SW-620 colon
A498 renal = test system: A498 renal
SF-268 CNS = test system: SF-268 CNS
NCI-H226 lung = test system: NCI-H226 lung
PC-3 prostate = test system: PC-3 prostate
BT-549 breast = test system: BT-549 breast
CAKI-1 renal = test system: CAKI-1 renal
M14 melanoma = test system: M14 melanoma
SNB-75 CNS = test system: SNB-75 CNS
RPMI-8226 leukemia = test system: RPMI-8226 leukemia

Structure (SMILES) | GI50 (SW-620 colon) [µM] | TGI (SW-620 colon) [µM] | GI50 (A498 renal) [µM] | TGI (A498 renal) [µM] | GI50 (SF-268 CNS) [µM] | TGI (SF-268 CNS) [µM] | GI50 (NCI-H226 lung) [µM] | TGI (NCI-H226 lung) [µM] | GI50 (PC-3 prostate) [µM] | TGI (PC-3 prostate) [µM] | GI50 (BT-549 breast) [µM] | TGI (BT-549 breast) [µM] | GI50 (CAKI-1 renal) [µM] | TGI (CAKI-1 renal) [µM] | GI50 (M14 melanoma) [µM] | TGI (M14 melanoma) [µM] | GI50 (SNB-75 CNS) [µM] | TGI (SNB-75 CNS) [µM] | GI50 (RPMI-8226 leukemia) [µM] | TGI (RPMI-8226 leukemia) [µM]
O=C(CN/C=C\C(=O)c1cc(Cl)ccc1Cl)c1ccccc1 | 32 | > 100 | 23.2 | 90.5 | 24.8 | 83.4 | 25.5 | 58.8 | 26 | 67 | 27.4 | 74.7 | 26.6 | 66.2 | 24 | 59.6 |  |  |  | 
O=C(O)c1cn(C2CC2)c2cc(N3CCN(C(=O)Nc4nc(-c5ccc(Cl)cc5)cs4)CC3)c(F)cc2c1=O | 4.7 | > 100 | 1.47 | 9.46 | 0.828 | > 100 | 3.23 | 87.7 | 2.7 | > 100 | 0.934 | 25.5 | 3.81 | > 100 | 2.86 | > 100 | 2.25 | 20.5 |  | 
OCCCNC(=S)Nc1ccc(-c2nc3ccccc3s2)cc1 | 47.7 | > 100 |  |  | 22.5 | > 100 | 18.5 | 49.6 | 27.7 | > 100 | 25 | 82.9 | 14.3 | 40.6 | 23.3 | 49 | 18.8 | 78.8 | 26.5 | > 100
COc1ccc(/C=C2\CCCC3=C2N=C2SC=NN2C3c2ccc(OC)c(OC)c2)cc1OC (configuration not stated) | 10.1 | 39.3 | 2.76 | 40.8 | 19.9 | > 100 | 18.5 | 89.2 | 37.8 | > 100 | 21.9 | > 100 | 7.43 | > 100 | 11.9 | > 100 | 9.38 | 44.1 |  | 
NC(CCCNCc1ccccc1O)C(=O)O (configuration not stated) |  | > 100 |  | > 100 |  | > 100 |  | > 100 |  |  |  |  |  | > 100 |  | > 100 |  | > 100 |  | > 100
CC1=NN(c2ccccc2)C(=O)C1C(=O)C(=O)Nc1ccc(C)cc1C (configuration not stated) |  | > 100 |  | > 100 |  | > 100 |  | > 100 |  | > 100 |  |  |  | > 100 |  | > 100 |  | > 100 |  | > 100
COc1ccc(OC)c2c3c(ncc12)-c1cc2c(cc1C3)OCO2 | > 100 | > 100 |  |  |  |  |  |  | > 100 | > 100 |  |  | > 100 | > 100 | 0.316 | > 100 | > 100 | > 100 | > 100 | > 100
O=c1nc2[nH]nc(-c3ccccc3)c2n[nH]1 |  | > 100 |  | > 100 |  | > 100 |  | > 100 |  |  |  |  |  | > 100 |  | > 100 |  |  |  | > 100
O=C1CC23CC(=O)CC2(C1)c1ccccc1C3=O (configuration not stated) |  | > 100 |  |  |  | > 100 |  | > 100 |  |  |  |  |  | > 100 |  | > 100 |  | > 100 |  | > 100
COC(=O)CCC(=O)C(C#N)c1ccc(Cl)cc1Cl (configuration not stated) |  | > 100 |  |  |  | > 100 |  | > 100 |  |  |  |  |  | > 100 |  | > 100 |  | > 100 |  | > 100
CCCN1CN(C(C(=O)N[C@@H]2C(=O)N3C(C(=O)O)=C(C)CSC23)c2ccccc2)CSC1=S (some centres not stated) |  |  |  | > 100 |  | > 100 |  |  |  |  |  |  |  |  |  | > 100 |  | > 100 |  | > 100
O=c1[nH]c(C2CCCCC2)nc2cc(Cl)ccc12 |  | > 100 |  |  |  | > 100 |  | > 100 |  |  |  |  |  | > 100 |  |  |  | > 100 |  | > 100
COC(=O)[C@]1(C)CCC[C@]2(C)C3CC4OOC3(C=C4C(C)C)CCC21 (some centres not stated) |  | 34.8 |  | 23.5 |  | 30.1 |  | 35.4 |  |  |  |  |  | 62.3 |  | 30.4 |  |  |  | 36
C/C(CC(=O)Nc1ccc([N+](=O)[O-])cc1)=N/N=C(N)N |  | > 100 |  |  |  | > 100 |  | > 100 |  |  |  |  |  |  |  | > 100 |  | > 100 |  | 
C[C@H]1[C@H](C)CC[C@]2(C(=O)O)CC[C@]3(C)C(=CC[C@@H]4[C@@]5(C)CC[C@H](OC(=O)/C=C\c6ccc(O)cc6)C(C)(C)[C@@H]5CC[C@]43C)[C@H]12 | 17.6 | 33.7 | 15 | 29.2 | 3.23 | 14.8 | 4.55 | 26.3 |  |  | 9.58 | 31.2 | 3.71 | 15.6 |  |  | 22.3 | 45.9 | 1.8 | 10.3
Cn1c(-c2ccccc2)c/c(=N\NS(C)(=O)=O)c2cc(S(=O)(=O)O)ccc21 |  | > 100 |  |  |  | > 100 |  | > 100 |  |  |  |  |  | > 100 |  | > 100 |  | > 100 |  | > 100
[O-][N+]1=C(c2ccccc2)COc2ccccc21 |  | > 100 |  | > 100 |  | > 100 |  | > 100 |  |  |  |  |  | > 100 |  | > 100 |  | > 100 |  | > 100
O=C(CCc1cc(-c2ccco2)n(-c2ccc([N+](=O)[O-])cc2[N+](=O)[O-])n1)Nc1ccccc1 |  | > 100 |  | > 100 |  | > 100 |  | > 100 |  |  |  |  |  | > 100 |  | > 100 |  | > 100 |  | > 100
COC(=O)C1CCc2nnc(-c3cccnc3)n21 (configuration not stated) |  | > 100 |  | > 100 |  | > 100 |  | > 100 |  |  |  |  |  | > 100 |  | > 100 |  | > 100 |  | > 100
COC(=O)/C(Cl)=C1/CC1COCc1ccccc1 (configuration not stated) |  | 45.1 |  | 96.9 |  | > 100 |  | 81.9 |  |  |  |  |  | 52.4 |  | 31.2 |  | > 100 |  | 58.3
CC(C)(C)C1CCN(C(=O)c2ccccc2)CC1 |  | > 100 |  | > 100 |  |  |  | > 100 |  |  |  |  |  |  |  | > 100 |  | > 100 |  | > 100
COC1=CC(=O)C2[C@H]3Cc4ccccc4[C@H]3C2(C)C1=O (some centres not stated) |  | > 100 |  | > 100 |  | > 100 |  | > 100 |  |  |  |  |  | > 100 |  | > 100 |  | > 100 |  | > 100

From PubChem BioAssay (NCI)
